Measured values reported in patent US20240360142A1, “Multitargeting Agents For The Potential Treatment of Dementia With Lewy Bodies, Parkinson's Disease, and Alzheimer Disease With Lewy Bodies” (Duquesne University of The Holy Spirit, priority 2023, published 2024).
In brackets after ≈: the same amount, converted by molar mass. Several values for one entry are separate records, joined by “and”; a condition that tells them apart may be missing. Equal entries are not always repeated. Entries after “also recorded” stand apart in the source; their conditions may differ. Where two headings read alike, the source gives them in different places. One block for each compound: values may come before it.

What was measured:
ABL1 = ABL1 (Homo sapiens, UniProt P00519); experiment: Kinase inhibition, ABL1; format: biochemical
Sequence of ABL1 (P00519 whole entry): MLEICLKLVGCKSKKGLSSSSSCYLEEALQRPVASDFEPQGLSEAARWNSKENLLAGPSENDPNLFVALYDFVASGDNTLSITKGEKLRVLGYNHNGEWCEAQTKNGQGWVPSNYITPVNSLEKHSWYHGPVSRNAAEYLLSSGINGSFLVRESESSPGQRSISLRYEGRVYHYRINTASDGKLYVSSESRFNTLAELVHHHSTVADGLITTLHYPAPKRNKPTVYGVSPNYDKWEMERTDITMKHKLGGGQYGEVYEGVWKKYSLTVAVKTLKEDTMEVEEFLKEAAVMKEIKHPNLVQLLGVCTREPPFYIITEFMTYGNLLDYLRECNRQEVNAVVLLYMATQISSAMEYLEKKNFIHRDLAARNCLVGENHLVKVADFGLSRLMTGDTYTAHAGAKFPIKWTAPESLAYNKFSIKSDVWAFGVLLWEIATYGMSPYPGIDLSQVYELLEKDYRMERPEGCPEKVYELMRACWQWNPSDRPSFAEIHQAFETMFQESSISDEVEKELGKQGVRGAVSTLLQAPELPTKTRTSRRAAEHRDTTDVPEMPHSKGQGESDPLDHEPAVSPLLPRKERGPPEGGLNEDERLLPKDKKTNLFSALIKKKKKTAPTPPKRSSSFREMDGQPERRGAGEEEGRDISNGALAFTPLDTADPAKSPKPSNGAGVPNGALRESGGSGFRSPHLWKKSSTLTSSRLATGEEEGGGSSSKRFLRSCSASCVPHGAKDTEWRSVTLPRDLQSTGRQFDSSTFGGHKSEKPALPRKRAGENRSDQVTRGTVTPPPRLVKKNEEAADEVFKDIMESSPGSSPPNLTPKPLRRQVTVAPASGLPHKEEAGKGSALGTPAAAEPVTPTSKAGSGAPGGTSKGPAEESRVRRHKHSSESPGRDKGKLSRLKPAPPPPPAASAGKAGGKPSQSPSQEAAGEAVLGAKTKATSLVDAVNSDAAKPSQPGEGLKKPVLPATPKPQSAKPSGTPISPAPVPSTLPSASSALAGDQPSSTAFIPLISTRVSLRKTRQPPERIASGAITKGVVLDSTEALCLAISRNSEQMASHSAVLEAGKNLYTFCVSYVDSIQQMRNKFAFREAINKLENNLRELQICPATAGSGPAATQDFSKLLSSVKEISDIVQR
Description: (§1) Total inhibition of these kinases would be detrimental to neuronal viability.

FYN = FYN (Homo sapiens, UniProt P06241); experiment: Kinase inhibition, FYN; format: biochemical
Sequence of FYN (P06241 whole entry): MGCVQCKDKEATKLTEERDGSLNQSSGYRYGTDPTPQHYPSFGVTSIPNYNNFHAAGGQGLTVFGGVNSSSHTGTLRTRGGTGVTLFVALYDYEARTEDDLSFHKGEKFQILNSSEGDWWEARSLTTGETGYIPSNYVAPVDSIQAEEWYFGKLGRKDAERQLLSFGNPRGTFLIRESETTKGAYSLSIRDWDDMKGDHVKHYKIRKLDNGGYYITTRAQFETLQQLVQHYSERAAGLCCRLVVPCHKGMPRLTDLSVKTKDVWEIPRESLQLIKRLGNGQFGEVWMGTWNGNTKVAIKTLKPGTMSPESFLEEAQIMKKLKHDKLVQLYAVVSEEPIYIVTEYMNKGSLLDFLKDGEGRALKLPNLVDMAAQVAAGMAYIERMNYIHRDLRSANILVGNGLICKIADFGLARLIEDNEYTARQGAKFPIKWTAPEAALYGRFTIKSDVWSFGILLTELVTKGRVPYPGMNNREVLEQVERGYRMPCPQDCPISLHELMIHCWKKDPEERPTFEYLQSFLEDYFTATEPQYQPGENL
Description: as §1

[1] = test system: primary hippocampal cultures; experiment: Viability / toxicity in primary hippocampal cultures; format: cell-based
Description: Thresholds were kept uniform across individual experiments.

CSNK1A1 (CK1 alpha 1) = CSNK1A1 (CK1 alpha 1) (Homo sapiens, UniProt P48729); experiment: Kinase inhibition, CSNK1A1; format: biochemical
Sequence of CSNK1A1 (CK1 alpha 1) (P48729 whole entry): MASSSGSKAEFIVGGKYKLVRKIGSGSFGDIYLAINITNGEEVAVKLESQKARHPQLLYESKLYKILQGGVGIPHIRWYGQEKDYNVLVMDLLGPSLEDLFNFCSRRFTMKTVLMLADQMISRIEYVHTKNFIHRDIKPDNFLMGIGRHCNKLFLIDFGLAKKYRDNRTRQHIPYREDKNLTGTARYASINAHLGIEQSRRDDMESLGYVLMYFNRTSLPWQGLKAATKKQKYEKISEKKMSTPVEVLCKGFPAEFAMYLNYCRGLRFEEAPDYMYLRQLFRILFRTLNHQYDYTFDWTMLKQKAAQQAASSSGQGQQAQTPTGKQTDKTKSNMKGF
Description: as §1

CSNK2A2 (CK2 alpha 2) = CSNK2A2 (CK2 alpha 2) (Homo sapiens, UniProt P19784); experiment: Kinase inhibition, CSNK2A2; format: biochemical; details: ATP Km app 46 μM
Sequence of CSNK2A2 (CK2 alpha 2) (P19784 whole entry): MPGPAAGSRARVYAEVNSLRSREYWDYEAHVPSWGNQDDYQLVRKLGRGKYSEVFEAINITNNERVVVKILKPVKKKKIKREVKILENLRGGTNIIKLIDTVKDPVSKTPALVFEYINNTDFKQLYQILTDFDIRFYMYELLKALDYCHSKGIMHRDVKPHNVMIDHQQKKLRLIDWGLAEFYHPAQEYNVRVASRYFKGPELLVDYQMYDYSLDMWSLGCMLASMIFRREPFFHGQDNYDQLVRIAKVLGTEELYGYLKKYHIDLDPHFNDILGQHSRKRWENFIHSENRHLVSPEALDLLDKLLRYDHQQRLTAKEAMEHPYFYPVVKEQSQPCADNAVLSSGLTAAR
Description: as §1

DYRK1A = DYRK1A (Homo sapiens, UniProt Q13627); experiment: Kinase inhibition, DYRK1A; format: biochemical; details: ATP Km app 99.7 μM
Description: as §1

GRK5 = GRK5 (Homo sapiens, UniProt P34947); experiment: Kinase inhibition, GRK5; format: biochemical; details: ATP Km app 3 μM
Description: as §1

GRK6 = GRK6 (Homo sapiens, UniProt P43250); experiment: Kinase inhibition, GRK6; format: biochemical; details: ATP Km app 11.7 μM
Sequence of GRK6 (P43250 whole entry): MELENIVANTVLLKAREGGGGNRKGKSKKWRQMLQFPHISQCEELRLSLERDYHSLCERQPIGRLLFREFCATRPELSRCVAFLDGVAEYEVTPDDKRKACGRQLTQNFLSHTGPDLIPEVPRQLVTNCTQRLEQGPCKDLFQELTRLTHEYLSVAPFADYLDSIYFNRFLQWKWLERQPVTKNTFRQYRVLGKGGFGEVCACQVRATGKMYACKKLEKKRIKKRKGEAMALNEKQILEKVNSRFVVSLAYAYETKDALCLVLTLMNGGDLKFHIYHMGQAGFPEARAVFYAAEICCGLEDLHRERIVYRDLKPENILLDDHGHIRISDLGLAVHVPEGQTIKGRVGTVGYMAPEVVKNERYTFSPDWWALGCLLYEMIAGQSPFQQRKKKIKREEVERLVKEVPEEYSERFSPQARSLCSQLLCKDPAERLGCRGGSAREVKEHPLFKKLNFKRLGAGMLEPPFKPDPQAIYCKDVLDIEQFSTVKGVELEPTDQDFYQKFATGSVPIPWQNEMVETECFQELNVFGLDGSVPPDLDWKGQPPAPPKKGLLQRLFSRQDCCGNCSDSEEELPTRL
Description: as §1

GSK3β = GSK3β (Homo sapiens, UniProt P49841); experiment: Kinase inhibition, GSK3β; format: biochemical
Sequence of GSK3β (P49841 whole entry): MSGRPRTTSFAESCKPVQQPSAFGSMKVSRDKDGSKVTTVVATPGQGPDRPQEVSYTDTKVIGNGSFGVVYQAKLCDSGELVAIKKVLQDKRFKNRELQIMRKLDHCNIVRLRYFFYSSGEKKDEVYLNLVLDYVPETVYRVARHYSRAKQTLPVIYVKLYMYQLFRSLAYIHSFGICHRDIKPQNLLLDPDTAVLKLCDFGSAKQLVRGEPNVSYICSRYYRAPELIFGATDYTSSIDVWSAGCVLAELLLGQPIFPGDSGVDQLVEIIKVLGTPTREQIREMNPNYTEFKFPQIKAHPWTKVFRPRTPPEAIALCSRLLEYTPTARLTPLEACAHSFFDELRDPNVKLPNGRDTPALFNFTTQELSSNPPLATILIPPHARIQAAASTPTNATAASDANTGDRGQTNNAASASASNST
Description: as §1

LARK2 = LARK2 (Homo sapiens, UniProt Q5S007); experiment: Kinase inhibition, LARK2; format: biochemical; also: ATP Km app 70 µM
Description: as §1

PLK2 = PLK2 (Homo sapiens, UniProt Q9NYY3); experiment: Kinase inhibition, PLK2; format: biochemical; details: ATP Km app 29.6 μM
Sequence of PLK2 (Q9NYY3 whole entry): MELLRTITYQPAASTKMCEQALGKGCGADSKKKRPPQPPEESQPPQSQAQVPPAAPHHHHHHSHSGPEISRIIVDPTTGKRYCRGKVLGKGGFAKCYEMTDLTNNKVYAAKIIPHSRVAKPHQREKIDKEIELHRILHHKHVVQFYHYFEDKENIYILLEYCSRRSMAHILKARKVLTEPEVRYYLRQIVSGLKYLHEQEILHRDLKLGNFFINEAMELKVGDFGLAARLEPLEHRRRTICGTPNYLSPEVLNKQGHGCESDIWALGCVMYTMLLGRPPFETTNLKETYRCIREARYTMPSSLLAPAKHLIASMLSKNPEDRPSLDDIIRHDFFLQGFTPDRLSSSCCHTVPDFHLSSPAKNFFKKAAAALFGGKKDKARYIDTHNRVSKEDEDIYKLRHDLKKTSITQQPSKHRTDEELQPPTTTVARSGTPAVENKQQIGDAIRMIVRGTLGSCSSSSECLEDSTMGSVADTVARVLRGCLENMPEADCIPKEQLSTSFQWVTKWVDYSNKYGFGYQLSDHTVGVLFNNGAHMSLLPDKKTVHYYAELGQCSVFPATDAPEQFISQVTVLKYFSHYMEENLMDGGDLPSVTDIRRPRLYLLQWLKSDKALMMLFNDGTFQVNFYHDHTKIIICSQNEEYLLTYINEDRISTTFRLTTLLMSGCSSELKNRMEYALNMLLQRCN
Description: as §1

Solubility = format: physicochemical; details: simulated gastric fluid; pH 2.0
[2] = Protein Binding, Human Plasma; format: in vitro ADME; details: read-out: Protein Binding % Bound (converted)
[3] = Protein Binding, Mouse Plasma; format: in vitro ADME; details: read-out: Protein Binding % Bound (converted)
[4] = Brain Tissue Binding, Mouse; format: in vitro ADME; details: read-out: Brain Tissue Binding % Bound (converted)
[5] = Metabolic Stability, Human; format: in vitro ADME; details: for half-life: read-out: Metabolic Stability T1/2
[6] = Metabolic Stability, Mouse; format: in vitro ADME; details: for half-life: read-out: Metabolic Stability T1/2
Permeability, MDC-MDR1 = format: in vitro ADME; details: MDCK-MDR1
in vivo = experiment: in vivo; design: species or system male CD-1 mice; details: for clinical symptoms during pharmacokinetic work: mouse
Procedure: Briefly, each compound was administered through intravenous and oral routes, and plasma samplings were collected from 2 to 24 hours post-injection for analyses by high-performance liquid chromatography and mass spectrometry (Prominence (Degasser DGU-20A5R(C), Serial NO. L20705619752 IX; Liquid Chromatograph LC-30AD Serial NO. L20555611120 AE and L20555611116 AE; Communications Bus Module CBM-20A, Serial NO. L20235635001 CD, Auto SIL-20AC HT, Serial No. L20355305356 AE; Rack changer II, Serial No. L20585300757 SS; AB Sciex Triple Quan 5500 LC/MS/MS instrument (Serial NO. EF20711807)). A HALO 90A, C18 2.7 μm 2.1×50 mm USKL004340 column was used and the mobile phase was 5 or 95% acetonitrile in water with 0.1% formic acid (see Supplemental Material).

[7] = target: T1, tubulin purified from porcine brain (Sus scrofa, UniProt P02550+P02554); details: cited from earlier work
T1 construct: in vitro assembly of tubulin purified from porcine brain; from tissue; host or cells: porcine brain
T1 sequence (P02550 whole entry): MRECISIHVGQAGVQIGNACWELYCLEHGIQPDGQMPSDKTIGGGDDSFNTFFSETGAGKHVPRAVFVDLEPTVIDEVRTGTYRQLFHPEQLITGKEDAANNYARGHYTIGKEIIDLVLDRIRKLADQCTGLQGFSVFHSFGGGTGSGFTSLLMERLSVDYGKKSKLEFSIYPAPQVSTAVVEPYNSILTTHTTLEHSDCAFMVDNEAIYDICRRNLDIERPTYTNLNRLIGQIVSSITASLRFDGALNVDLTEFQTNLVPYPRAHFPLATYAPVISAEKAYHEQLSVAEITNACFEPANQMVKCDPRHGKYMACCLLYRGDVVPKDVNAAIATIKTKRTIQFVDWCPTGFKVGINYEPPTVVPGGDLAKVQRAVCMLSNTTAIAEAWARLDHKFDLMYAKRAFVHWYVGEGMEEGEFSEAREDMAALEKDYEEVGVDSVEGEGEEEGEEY
T1 sequence (P02554 whole entry): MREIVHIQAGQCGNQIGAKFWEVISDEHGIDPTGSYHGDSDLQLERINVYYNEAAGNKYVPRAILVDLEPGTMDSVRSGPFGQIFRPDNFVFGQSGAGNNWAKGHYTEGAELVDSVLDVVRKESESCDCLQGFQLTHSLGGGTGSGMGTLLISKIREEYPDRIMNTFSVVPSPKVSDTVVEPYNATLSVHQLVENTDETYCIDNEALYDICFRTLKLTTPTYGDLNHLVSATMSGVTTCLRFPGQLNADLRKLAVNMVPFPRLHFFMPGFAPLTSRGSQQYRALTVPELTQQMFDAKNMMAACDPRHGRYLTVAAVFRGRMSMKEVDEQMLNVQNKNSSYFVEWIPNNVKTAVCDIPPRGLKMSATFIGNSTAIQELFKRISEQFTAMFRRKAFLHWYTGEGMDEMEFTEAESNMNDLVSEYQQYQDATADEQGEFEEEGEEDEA

[8] = test system: βIII-tubulin+ structures in primary hippocampal neurons; experiment: Nocodazole shock treatment followed by cold methanol fixation, βIII-tubulin staining; format: cell-based, rat; details: AG161-47 8 μM; nocodazole 50 nM and 5 μM
Procedure: For cold methanol fixation, primary hippocampal cultures plated on glass slides were exposed to ice-cold methanol (−20° C.) for 15 minutes on DIV 4. […] After immunostaining, coverslips were applied using FluoroMount-G (0100-01, SouthernBiotech).
The microtubule destabilizer/depolymerizer and kinase inhibitor nocodazole blocks AG161-47 activity: We qualitatively compared AG161-47 with the established microtubule destabilizer/depolymerizer nocodazole (Baas & Black, 1990; Baas et al., 2016; Bates & Eastman, 2017; Kapellos et al., 2016; Koenigsknecht & Landreth, 2004; Kuhn, 1998; Mandrekar et al., 2009; Nakayama et al., 2012; Park et al., 2012), using a nocodazole shock treatment followed by cold methanol fixation in primary hippocampal cultures, as previously described (Ferreira et al., 2018; Warren et al., 2020). Primary hippocampal cultures were treated with vehicle or AG161-47 at 8 μM or nocodazole at 50 nM and 5 μM.

[9] = test system: male CD-1 mice infused with preformed α-synuclein fibrils; experiment: In vivo model of limbic-centered Lewy body disease (fibril infusion in OB/AON, daily tablets for six weeks); design: species or system mouse
[10] = test system: microtubules in HeLa cells; details: cited from earlier work
[11] = test system: α-tubulin (detyrosinated, tyrosinated, acetylated); experiment: Post-translational markers of microtubule stability in primary hippocampal cultures (immunoblotting); format: cell-based, rat; details: 5 nM nocodazole, in the presence of fibrils

- IC50 (ABL1; representative value, ATP bin 10 μM, read-out: IC50 (nM) of Std inhibitor, ABL1): 326 nM
- IC50 (FYN; representative value, ATP bin 75 μM, read-out: IC50 (nM) of Std inhibitor, FYN): 5300 nM
Compound: COc1cc2ncnc(Nc3cccc(Cl)c3)c2cc1OC [Tyrphostin AG1478, reference compound]

Compound: epothilone
- toxicity to primary hippocampal cultures [1]: toxic to primary hippocampal cultures at nanomolar concentrations; also recorded: also found to be toxic

- IC50 (CSNK1A1 (CK1 alpha 1); representative value, ATP bin 5 μM, read-out: IC50 (nM) of Std inhibitor, CSNK1A1 (CK1 alpha 1)): 12600 nM
Compound: Brc1c(Br)c(Br)c2n[nH]nc2c1Br [TBB, reference compound]

Compound: Cc1ccc(N(C)c2nc(N)nc3[nH]c4cccc(Cl)c4c23)cc1 [AGN5]
- IC50 (ABL1; ATP Km app 12 μM): 26.1 nM
- IC50 (CSNK1A1 (CK1 alpha 1)): 498 nM
- IC50 (CSNK2A2 (CK2 alpha 2)): > 1110 nM
- IC50 (DYRK1A): 249 nM
- IC50 (FYN; ATP Km app 85 μM): 169 nM
- IC50 (GRK5): > 370 nM
- IC50 (GRK6): 64.3 nM
- IC50 (GSK3β): 3.12 nM
- IC50 (LARK2): 20 nM
- IC50 (PLK2): 16.7 nM
- solubility (Solubility): 1.75 µM (≈ 0.591 µg/mL)
- fraction unbound [2]: 0.0022
- fraction unbound [3]: < 0.0002
- fraction unbound [4]: 0.0004
- CLint scaled [5]: 44.7 mL/min/kg
- half-life [5]: 38.9 min
- CLint scaled [6]: 602 mL/min/kg
- half-life [6]: 10.1 min
- Papp A→B (Permeability, MDC-MDR1): 1.74 ×10⁻⁶ cm/s
- Papp B→A (Permeability, MDC-MDR1): 2.98 ×10⁻⁶ cm/s
- Kp (in vivo; male, CD-1, mouse): 5.99
- Kp uu at 2 h (in vivo; male, CD-1, mouse): 6
- C0 (in vivo; male, CD-1, mouse, iv, 1 mg/kg): 811 ng/mL
- CIobs (in vivo; male, CD-1, mouse, iv, 1 mg/kg): 49.5 mL/min/kg
- Vss_obs (in vivo; male, CD-1, mouse, iv, 1 mg/kg): 3.24 L/kg
- half-life (in vivo; male, CD-1, mouse, iv, 1 mg/kg): 93 min
- AUC(0-t) (in vivo; male, CD-1, mouse, po, 1 mg/kg): 19.2 ng·h/mL
- Cmax (in vivo; male, CD-1, mouse, po, 1 mg/kg): 14.7 ng/mL and 44 nM
- F (in vivo; male, CD-1, mouse, po, 1 mg/kg): 6.35%
- Tmax (in vivo; male, CD-1, mouse, po, 1 mg/kg): 30 min
- half-life (in vivo; male, CD-1, mouse, po, 1 mg/kg): 46.8 min
- clinical symptoms during pharmacokinetic work (in vivo): no abnormal clinical symptoms were observed
- in vitro assembly of porcine brain tubulin [7]: accelerate the temporal kinetics of porcine brain tubulin in vitro assembly

Compound: CN(c1ccccc1)c1nc(N)nc2[nH]c3cccc(Cl)c3c12 [AGN11]
- IC50 (ABL1; ATP Km app 12 μM): 7.96 nM
- IC50 (CSNK1A1 (CK1 alpha 1)): 30.5 nM
- IC50 (CSNK2A2 (CK2 alpha 2)): > 1110 nM
- IC50 (DYRK1A): 8.15 nM
- IC50 (FYN; ATP Km app 85 μM): 888 nM
- IC50 (GRK5): > 1110 nM
- IC50 (GRK6): 614 nM
- IC50 (GSK3β): 8.12 nM
- IC50 (LARK2): 7.03 nM
- IC50 (PLK2): > 370 nM
- solubility (Solubility): 0.71 µM (≈ 0.23 µg/mL)
- fraction unbound [2]: 0.004
- fraction unbound [3]: 0.0022
- fraction unbound [4]: 0.0008
- CLint scaled [5]: 45.6 mL/min/kg
- half-life [5]: 38.1 min
- CLint scaled [6]: 602 mL/min/kg
- half-life [6]: 10.1 min
- Papp A→B (Permeability, MDC-MDR1): 4.97 ×10⁻⁶ cm/s
- Papp B→A (Permeability, MDC-MDR1): 4.16 ×10⁻⁶ cm/s
- Kp (in vivo; male, CD-1, mouse): 4.5
- Kp uu at 2 h (in vivo; male, CD-1, mouse): 4.4
- C0 (in vivo; male, CD-1, mouse, iv, 1 mg/kg): 529 ng/mL
- CIobs (in vivo; male, CD-1, mouse, iv, 1 mg/kg): 120 mL/min/kg
- Vss_obs (in vivo; male, CD-1, mouse, iv, 1 mg/kg): 2.41 L/kg
- half-life (in vivo; male, CD-1, mouse, iv, 1 mg/kg): 19.4 min
- AUC(0-t) (in vivo; male, CD-1, mouse, po, 1 mg/kg): 11 ng·h/mL
- F (in vivo; male, CD-1, mouse, po, 1 mg/kg): 8.38%
- Tmax (in vivo; male, CD-1, mouse, po, 1 mg/kg): 25 min
- half-life (in vivo; male, CD-1, mouse, po, 1 mg/kg): 36 min
- clinical symptoms during pharmacokinetic work (in vivo): no abnormal clinical symptoms were observed
- fragmented and condensed Hoechst+ nuclei ([1]; 8 μM, fibril-treated group): reduced fragmented and condensed Hoechst^+ nuclei
- impact on fragmented/condensed cell counts with nocodazole co-treatment ([1]; fibril groups, nocodazole 1 and 5 nM): prevented by both concentrations of nocodazole
- appearance of βIII-tubulin+ structures after cold methanol fixation [8]: did not alter the appearance of βIII-tubulin^+ structures
- correlation between insoluble α-synuclein and locomotor speed ([9]; 5 mg/kg): uncoupled the inverse correlation between insoluble α-synuclein and locomotor speed
- hyperphosphorylation (pSer129) of insoluble α-synuclein, piriform cortex and amygdala ([9]; 5 mg/kg, six weeks, listed as AG161-47): modestly lowered; also recorded: reduced the hyperphosphorylation of insoluble α-synuclein
- effect on Lewy-related pathology ([9]; 10 mg/kg, six weeks): too high to exert beneficial effects
- bodyweight ([9]; daily tablets 5 or 10 mg/kg, six weeks, compared to placebo): No loss of bodyweight
- acetylated, detyrosinated, or tyrosinated α-tubulin levels in whole-fraction OB/AON ([9]; immunoblotting, six weeks): virtually no net effect
- α-synucleinopathic inclusion counts ([9]; piriform cortex sections, six weeks): does not affect α-synucleinopathic inclusion counts
- locomotor activity in an open arena ([9]; six weeks after fibril infusions): reduced locomotor activity
- other behavior measures (novel odor habituation, Y-maze, marble burying) ([9]; six weeks of daily tablets): no impact
- in vitro assembly of porcine brain tubulin [7]: accelerated and amplified the net in vitro assembly of tubulin
- microtubule effects in HeLa cells [10]: elicited both stabilization and relaxation of microtubules

Compound: COC(=O)Nc1nc2ccc(C(=O)c3cccs3)cc2[nH]1 [nocodazole]
- number of viable Hoechst+ cells ([1]; fibrils, escalating AG161-47 up to 8 μM, nocodazole 1 and 5 nM, 10 days): no statistically significant changes
- toxicity to primary hippocampal cultures [1]: also found to be toxic
- acetylated (stable) α-tubulin levels [11]: raised the levels of acetylated (stable) α-tubulin
- appearance of βIII-tubulin+ structures after cold methanol fixation [8]: neurotoxicity and severe beading of axonal microtubules
